# Test results from ChEMBL document CHEMBL5120970, “Cryptic Epoxytiglianes from the Kernels of the Blushwood Tree (Fontainea picrosperma)” (J Nat Prod, 2022).
# Columns and labels:
# [1] = system: Neutrophil; test: Induction of ROS production in human polymorphonuclear neutrophils incubated for 10 mins by DHE staining based fluorescence assay; assay type: functional, cell-based
# [2] = system: K562; test: Cytotoxicity against PKC sensitive human K562 cells assessed as inhibition of cell growth measured after 7 days by Cell Titer Aqueous96 one solution reagent assay; assay type: functional, cell-based; details: K562, 168 h
EC50 [1],SMILES,IC50 [2]
125 nM,C/C=C(\C)C(=O)O[C@@H]1[C@@H](C)[C@@]2(O)[C@H]([C@@H]3C(C)(C)[C@]13OC(=O)[C@@H](C)CC)[C@@H]1O[C@]1(CO)[C@@H](O)[C@]1(O)C(=O)C(C)=C[C@H]12 [TIGILANOL TIGLATE],11.9 nM
> 3630 nM,C/C=C(\C)C(=O)O[C@@H]1[C@@H](C)[C@@]2(O)[C@H]([C@@H]3C(C)(C)[C@]13OC(=O)[C@@H](C)CC)[C@@H]1O[C@]1(COC(=O)CCCCCCC/C=C\C/C=C\CCCCC)[C@@H](O)[C@]1(O)C(=O)C(C)=C[C@H]12,124 nM
